# Columns and labels:
# colon cancer cells = system: colon cancer cells; design: method as in PMID 33088219; conditions: treatment with the FABP4 inhibitor; cited from earlier work
# FABP4 = target: T1, FABP4 (Homo sapiens, UniProt P15090); experiment: FABP4 Inhibitor/Ligand Screening Assay Kit: displacement of a fluorescent detection reagent; type: binding; conditions: for IC50: displacement of detection reagent from FABP4, compounds diluted in PBS pH 7.4, fluorescence em 470 nm, ex 370 nm
# T1 construct: purchased Cayman Chemical 10010231
# T1 sequence (P15090 whole entry): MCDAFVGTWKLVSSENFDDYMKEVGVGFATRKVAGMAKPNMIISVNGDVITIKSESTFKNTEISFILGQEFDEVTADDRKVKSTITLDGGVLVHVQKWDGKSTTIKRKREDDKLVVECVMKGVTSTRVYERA
# Experimental: FABP4 inhibitory activity was assessed by measuring the decrease in fluorescent signal of a detection reagent (DR) when displaced by a strong FABP4 ligand. […] Therefore, any effective ligand of the protein, which binds to the same binding pocket and can displace the DR, determines a reduction in the fluorescence read-out. The new molecular series was screened in a two-step procedure. Firstly, a single concentration of 5 µM was used to gain an estimation of the overall inhibitory effect of all the molecules.
# To analyze the inhibitory activity of FABP4 ligands, a displacement assay was utilized as described by the Cayman’s instruction, FABP4 Inhibitor/Ligand Screening Assay Kit, Item 10,010,231 (see Supplementary Materials for additional details). The samples of compounds for activity determination were prepared as a stock solution (1 mM) in DMSO. On the day of activity assay, the compounds were all diluted in phosphate buffer solution (PBS, pH 7.4) to different concentrations (100, 50, 10, 5, 2, 1, and 0 µM). Appropriate concentrations of DMSO in PBS were used as control. The detection reagent (FABP Assay Detection Reagent, Item 10010376) was used as provided by the Cayman’s kit. The diluted Detection Reagent probe was mixed with FABP4 protein present in the kit and incubated for 10 min at room temperature. Compounds were then added and equilibrated for another 10 min. Lastly, the fluorescence signal was recorded at 470 nm (i.e., emission, with the excitation fixed at 370 nm) with a CytoFluor® Series 4000 Fluorescence Multi-Well Plate Reader.
melting point,IC50 (FABP4),"FABP4 inhibitory activity, IC50 in words (FABP4; summary statement in conclusions)",Compound,migration and invasion of colon cancer cells (colon cancer cells)
,,,CCc1c(-c2ccccc2)c(-c2ccccc2)nn1-c1ccccc1-c1cccc(OCC(=O)O)c1 [BMS309403],weakened
228 to 230 °C,8.27 ± 0.2 µM,low micromolar range,"CCCNC(=O)c1c(-c2ccccc2)n[nH]c(=O)c1N [Compound 4b, 5-Amino-6-oxo-3-phenyl-1,6-dihydropyridazine-4-carboxylic acid propylamide]",
213 to 215 °C,> 50 µM,,"CC(=O)N1CCN(C(=O)c2ccc(Nc3cc(-c4ccccc4)nn(C)c3=O)cc2)CC1 [Compound 35, 4-[4-(4-Acetyl-piperazine-1-carbonyl)-phenylamino]-2-methyl-6-phenylpyridazin-3(2H)-one]",

# Source: article PMC9697826 (Pharmaceuticals, 2022)
